Measured values: patent publication US10508109B2 (priority 2015, dated 2019)
Counter-ions that a name gives are not always drawn. Like-named read-outs stand apart in the source and are kept apart here.

What was measured:
[1] = system: A549; test: Cell-based assay, anti-proliferative activity (Cell Counting Kit-8, 72 hours); conditions: Homo sapiens, read-out: IC50 (μM) A549
In short: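 Following seeding into 96-well microtiter plates, the cells receive candidate inhibitors, and cellular growth is quantified at the end of the exposure period. An IC50 is computed for each compound.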

[2] = system: CCD-18Co; test: as above; conditions: Homo sapiens, read-out: IC50 (μM) CCD-18Co
In short: (§1)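 Cells were seeded in 96-well plates and exposed to the inhibitors for 72 hours, after which growth was measured with Cell Counting Kit-8. IC50 was derived from a serial dilution series of 0, 1.5625, 3.125, 6.25, 12.5, 25, 50 and 100 micro-M.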

[3] = system: HCT-116; test: as above; conditions: Homo sapiens, read-out: IC50 (μM) HCT-116
In short: as §1

[4] = system: HFL1; test: as above; conditions: Homo sapiens, read-out: IC50 (μM) HFL1
In short: as §1

[5] = target: SUV39H2 (Homo sapiens (Human), UniProt Q9H5I1); conditions: read-out: IC50 (μM) Suv 39H2 assay
Chain of SUV39H2 (Q9H5I1 whole entry): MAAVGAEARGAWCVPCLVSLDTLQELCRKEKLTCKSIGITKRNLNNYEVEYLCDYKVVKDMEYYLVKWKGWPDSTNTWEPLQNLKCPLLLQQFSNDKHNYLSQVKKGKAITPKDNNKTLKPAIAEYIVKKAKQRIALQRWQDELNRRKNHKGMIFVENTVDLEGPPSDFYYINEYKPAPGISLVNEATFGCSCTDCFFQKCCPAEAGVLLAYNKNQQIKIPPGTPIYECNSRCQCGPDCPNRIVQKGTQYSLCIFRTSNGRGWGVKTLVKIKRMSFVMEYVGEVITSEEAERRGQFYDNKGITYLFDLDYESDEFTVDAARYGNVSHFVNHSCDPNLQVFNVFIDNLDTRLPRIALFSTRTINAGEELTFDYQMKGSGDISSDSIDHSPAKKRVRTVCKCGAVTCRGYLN

[6] = system: PC14; test: Cell-based assay, anti-proliferative activity (Cell Counting Kit-8, 72 hours); conditions: Homo sapiens, PC-14, 72 h, read-out: IC50 (μM) PC14
In short: as §1

[7] = A549 cells, Cell Counting Kit-8, 72 hours
[8] = CCD-18Co cells, Cell Counting Kit-8, 72 hours
[9] = HCT-116 cells, Cell Counting Kit-8, 72 hours
[10] = HFL1 cells, Cell Counting Kit-8, 72 hours

| Structure (SMILES) | IC50 [1, 7] | IC50 [2, 8] | IC50 [3, 9] | IC50 [4, 10] | IC50 ([5]; enzyme assay) | IC50 ([1]; A549, 72 h) | IC50 ([2]; CCD-18Co, 72 h) | IC50 ([3]; HCT-116, 72 h) | IC50 ([4]; HFL1, 72 h) | IC50 [5] | IC50 [6] |
| --- | --- | --- | --- | --- | --- | --- | --- | --- | --- | --- | --- |
| COc1cc(OC)c(-c2cn3ccc(C4=CCN(CC#N)CC4)cc3n2)cc1Cl [Example 111, 2-(4-(2-(5-chloro-2,4-dimethoxyphenyl)imidazo[1,2-a]pyridin-7-yl)-5,6-dihydropyridin-1(2H)-yl)acetonitrile] | 3.3 µM | 4.8 µM | 3.5 µM | 1.9 µM | 0.0614 µM |  |  |  |  |  |  |
| COc1cc(OC)c(-c2cn3ccc(C4CCNCC4)cc3n2)cc1Cl [Example 112, 2-(5-chloro-2,4-dimethoxyphenyl)-7-(piperidin-4-yl)imidazo[1,2-a]pyridine] | 6.3 µM | 8.8 µM | 7.5 µM | 6.7 µM | 0.0623 µM |  |  |  |  |  |  |
| COc1cc(OC)c(-c2cn3ccc(C4=CCN(CCF)CC4)cc3n2)cc1Cl [Example 113, 2-(5-chloro-2,4-dimethoxyphenyl)-7-(1-(2-fluoroethyl)-1,2,3,6-tetrahydropyridin-4-yl)imidazo[1,2-a]pyridine] | 6.7 µM | 7.6 µM | 6.7 µM | 5.2 µM | 0.0571 µM |  |  |  |  |  |  |
| COc1cc(OC)c(-c2cn3cc(CCCCN)c(N4CCOCC4)cc3n2)cc1Cl [Example 114, 4-(2-(5-chloro-2,4-dimethoxyphenyl)-7-morpholinoimidazo[1,2-a]pyridin-6-yl)butan-1-amine] | 8.7 µM | 8.9 µM | 7.9 µM | 6.2 µM | 0.0502 µM |  |  |  |  |  |  |
| COc1cc(OC)c(-c2cn3cc(N4CCNCC4)ccc3n2)cc1Cl [Example 115, 2-(5-chloro-2,4-dimethoxyphenyl)-6-(piperazin-1-yl)imidazo[1,2-a]-pyridine hydrochloride] |  |  |  |  |  | 9.4 µM | 13 µM | 7.7 µM | 8.4 µM | 0.0179 µM |  |
| COCCCN1CC=C(c2ccn3cc(-c4cc(Cl)c(OC)cc4OC)nc3c2)CC1 [Example 116, 2-(5-Chloro-2,4-dimethoxyphenyl)-7-(1-(3-methoxypropyl)-1,2,3,6-tetrahydropyridin-4-yl)imidazo[1,2-a]pyridine] | 6.1 µM | 11 µM | 7 µM | 6.6 µM | 0.0738 µM |  |  |  |  |  |  |
| COc1cc(OC)c(-c2cn3ccc(C4=CCC5(CC4)OCCO5)cc3n2)cc1Cl [Example 117, 2-(5-chloro-2,4-dimethoxyphenyl)-7-(1,4-dioxaspiro[4.5]dec-7-en-8-yl)-imidazo[1,2-a]pyridine] | 3.5 µM | 7.7 µM | 3 µM | 5.2 µM | 0.0633 µM |  |  |  |  |  |  |
| COc1cc(OC)c(-c2cn3ccc(C4=CCOCC4)cc3n2)cc1Cl [Example 118, 2-(5-chloro-2,4-dimethoxyphenyl)-7-(3,6-dihydro-2H-pyran-4-yl)-imidazo[1,2-a]pyridine] | 6.9 µM | 11 µM | 9.1 µM | 6.9 µM | 0.0661 µM |  |  |  |  |  |  |
| COc1cc(OC)c(-c2cn3ccc(C4CCC(=O)CC4)cc3n2)cc1Cl [Example 119, 4-(2-(5-chloro-2,4-dimethoxyphenyl)imidazo[1,2-a]pyridin-7-yl)-cyclohexanone] |  |  |  |  | 0.0429 µM | 5.8 µM | 3.6 µM | 9.7 µM | 3.5 µM |  |  |
| COc1cc(OC)c(-c2cn3ccc(C4=CCN(C(C)=O)CC4)cc3n2)cc1Cl [Example 120, 1-(4-(2-(5-chloro-2,4-dimethoxyphenyl)imidazo[1,2-a]pyridin-7-yl)-5,6-dihydropyridin-1(2H)-yl)ethanone] | 6.5 µM | 6.8 µM | 6.6 µM | 7.6 µM | 0.0364 µM |  |  |  |  |  |  |
| COc1cc(OC)c(-c2cn3cc(N4CCC(N)CC4)ccc3n2)cc1Cl [Example 121, 1-(2-(5-chloro-2,4-dimethoxyphenyl)imidazo[1,2-a]pyridin-6-yl)piperidin-4-amine] | 8.1 µM | 6.8 µM | 18 µM | 6.8 µM | 0.0514 µM |  |  |  |  |  |  |
| CNCC(=O)Nc1ccc(-c2ccn3cc(-c4cc(Cl)c(OC)cc4OC)nc3c2)cc1 [Example 273, N-(4-(2-(5-chloro-2,4-dimethoxyphenyl)imidazo[1,2-a]pyridin-7-yl)phenyl)-2-(methylamino)acetamide hydrochloride] |  |  |  |  |  | 1.5 µM | 1.1 µM | 0.86 µM | 1.2 µM |  | 1.1 µM |
